Test results reported in patent US7674823B2, “DNA-PK inhibitors” (Cancer Research Technology Limited, priority 2001, dated 2010).

Assays:
HeLa cells = assay: Enhancement Ratio: cell growth inhibition (SRB assay) after 2 Gy irradiation; assay type: cell-based; details: inhibitor 25 μM
Protocol: DNA-PK inhibitors were used at a fixed concentration of 25 micromolar. Radiation was delivered by a Faxitron 43855D X-ray system at a dose rate of 1Gy per minute The Enhancement ratio at 2 Gy irradiation was calculated from the formula: [formula] Cell growth was assessed using the sulforhodamine B (SRB) assay (Skehan, P., Storung, R., Scudiero, R., Monks, […]., Kenny, S. and Boyd, M. R. (1990) New calorimetric cytotoxicity assay for anticancer-drug screening. J. Natl. Cancer Inst. 82:1107-1112). 400 HeLa cells were seeded into each well of a flat-bottomed 48-well microtiter plate in a volume of 200 μl and incubated for 6 h at 37° C. […] Cells were allowed to grow for a further 1 h before irradiation or mock irradiation. Cells untreated with DNA-PK inhibitor or unirradiated were used as a control. Cells treated with DNA-PK inhibitor alone were used to assess the growth inhibition by the DNA-PK inhibitor. Cells were left for a further 16 h before replacing the media and allowing the cells to grow for a further 6 days at 37° C. The media was then removed and the cells fixed with 200 μl of ice cold 10% (w/v) trichloroacetic acid. The plates were incubated at 4° C. for 20 minutes and then washed four times with water. Each well of cells was then stained with 200 μl of 0.4% (w/v) SRB in 1% acetic acid for 20 minutes before washing four times with 1% acetic acid. Plates were then dried for 2 h at room temperature. The dye from the stained cells was solubilized by the addition of 100 μl of 10 mM Tris Base into each well. Plates were gently shaken and left at room temperature for 30 minutes before measuring the optical density at 564 nm on a Microquant microtiter plate reader.

ATM protein [1] = assay: ATM inhibition assay (immunoprecipitated ATM, GSTp53N66 substrate); assay type: biochemical, human; details: selectivity ratio from the IC50s for ATM and DNA-PK
Protocol: (§1) In order to assess the inhibitory action of the compounds against ATM in vitro, the following assay was used to determine IC50 values.
(§2) ATM protein was immunoprecipitated from HeLa cell nuclear extract using rabbit polyclonal antisera raised to the C-terminal ˜500 amino-acid residues of the human ATM protein. The immunoprecipitation was performed according to the methodology described by Banin, S. et al. (1998) Enhanced phosphorylation of p53 by ATM in response to DNA damage. Science 281:1674-1677. 10 μl of immunoprecipitated ATM in Buffer C (50 mM Hepes, pH 7.4, 6 mM MgCl2, 150 mM NaCl, 0.1 mM sodium orthovanadate, 4 mM MnCl2, 0.1 mM dithiothreitol, 10% glycerol) was added to 32.5 μl of buffer C containing 1 μg of the ATM substrate GSTp53N66 in a V-bottomed 96 well polypropylene plate. The GSTp53N66 substrate is the amino terminal 66 amino acid residues of human wild type p53 fused to glutathione S-transferase. ATM phosphorylates p53 on the residue serine 15 (Banin, S. et al. (1998) Enhanced phosphorylation of p53 by ATM in response to DNA damage. Science 281:1674-1677). Varying concentrations of inhibitor were then added. […] After 10 minutes of incubation at 37° C., the reactions were initiated by the addition of 5 μl of 50 μM Na-ATP. After 1 h with shaking at 37° C., 150 μl of phosphate buffered saline (PBS) was added to the reaction and the plate centrifuged at 1500 rpm for 10 minutes. 5 μl of the reaction was then transferred to a 96 well opaque white plate containing 45 μl of PBS to allow the GSTp53N66 substrate to bind to the plate wells. The plate was covered and incubated at room temperature for 1 h with shaking before discarding the contents. The plate wells were washed twice by the addition of PBS prior to the addition of 3% (w/v) bovine serum albumin (BSA) in PBS. The plate was incubated at room temperature for 1 h with shaking before discarding the contents and washing twice with PBS. To the wells, 50 μl of a 1:10,000 dilution of primary phosphoserine-15 antibody (Cell Signaling Technology, #9284L) in 3% BSA/PBS was added to detect the phosphorylation event on the serine 15 residue of p53 elicited by the ATM kinase. After 1 h of incubation at room temperature with shaking, the wells were washed four times with PBS prior to the addition of an anti-rabbit HRP conjugated secondary antibody (Pierce, 31462) with shaking for 1 h at room temperature. The wells were then washed four times with PBS before the addition of chemiluminescence reagent (NEN Renaissance, NEL105). The plate was then shaken briefly, covered with a transparent plate seal and transferred to a TopCount NXT for chemiluminescent counting. Counts per second, following a one second counting time, were recorded for each reaction. The inhibition of ATM activity by compounds was calculated as described above for the DNA-PK assay.
(§3) The selectivity was determined by the following equation: […]

ATM protein [2] = target: T1, ATM protein (Homo sapiens, UniProt Q13315); assay: as above; assay type: biochemical
T1 construct: ATM protein was immunoprecipitated from HeLa cell nuclear extract; endogenous in cells; host or cells: HeLa cell nuclear extract (immunoprecipitate)
Protocol: as §1, §2, §3

PI 3-kinase (p110α/p85α) [3] = assay: PI 3-kinase inhibition assay; assay type: biochemical; details: selectivity ratio from the IC50s for PI 3-kinase and DNA-PK
Source text: (§4) In order to assess the inhibitory action of the compounds against PI 3-kinase in vitro, the following assay was used to determine IC50 values.
(§5) Baculoviral recombinant GST-fused PI 3-kinase (p110α/p85α) was purified from Sf9 insect cells using GSH-sepharose affinity chromatography as described (Wymann, M. T et al., (1996) Wortmannin inactivates phosphoinositide 3-kinase by covalent modification of Lys-802, a residue involved in the phosphate transfer reaction. Mol. Cell Biol. 16:1722-1733). PI 3-kinase (1 μl) was diluted in reaction buffer (89 μl of 50 mM Hepes pH 7.5, 150 mM NaCl, 0.1 mM Sodium Orthovanadate, containing 20 μg of phosphatidylinositol) and varying concentrations of inhibitor compound added. […] Reactions were incubated for a further 20 minutes at 37° C., before quenching with the addition of 400 μl of chloroform/methanol (1:1). Reactions were acidified by the addition of 200 μl of 1M HCl, before separation of the organic and aqueous phases by centrifugation at 10,000 g for 30 seconds. The organic phase was transferred to a fresh tube and washed twice with 150 μl of 1M hydrochloric acid/methanol (1:1), discarding the aqueous phase. The washed reaction product was then placed in a white 96-well plate with 100 μl of scintillation fluid and transferred to a TopCount NXT for scintillation counting. Counts per minute, following a one minute counting time, were recorded for each reaction. The inhibition of PI 3-kinase activity by compounds was calculated as described above for the DNA-PK assay.
as §3

PI 3-kinase (p110α/p85α) [4] = target: T2, PI 3-kinase (p110α/p85α) (UniProt P32871); assay: PI 3-kinase inhibition assay; assay type: biochemical; details: GST-fused p110α/p85α
T2 construct: other: GST-fused p110α/p85α
Source text: as §4, §5, §3

T1 sequence (Q13315 whole entry): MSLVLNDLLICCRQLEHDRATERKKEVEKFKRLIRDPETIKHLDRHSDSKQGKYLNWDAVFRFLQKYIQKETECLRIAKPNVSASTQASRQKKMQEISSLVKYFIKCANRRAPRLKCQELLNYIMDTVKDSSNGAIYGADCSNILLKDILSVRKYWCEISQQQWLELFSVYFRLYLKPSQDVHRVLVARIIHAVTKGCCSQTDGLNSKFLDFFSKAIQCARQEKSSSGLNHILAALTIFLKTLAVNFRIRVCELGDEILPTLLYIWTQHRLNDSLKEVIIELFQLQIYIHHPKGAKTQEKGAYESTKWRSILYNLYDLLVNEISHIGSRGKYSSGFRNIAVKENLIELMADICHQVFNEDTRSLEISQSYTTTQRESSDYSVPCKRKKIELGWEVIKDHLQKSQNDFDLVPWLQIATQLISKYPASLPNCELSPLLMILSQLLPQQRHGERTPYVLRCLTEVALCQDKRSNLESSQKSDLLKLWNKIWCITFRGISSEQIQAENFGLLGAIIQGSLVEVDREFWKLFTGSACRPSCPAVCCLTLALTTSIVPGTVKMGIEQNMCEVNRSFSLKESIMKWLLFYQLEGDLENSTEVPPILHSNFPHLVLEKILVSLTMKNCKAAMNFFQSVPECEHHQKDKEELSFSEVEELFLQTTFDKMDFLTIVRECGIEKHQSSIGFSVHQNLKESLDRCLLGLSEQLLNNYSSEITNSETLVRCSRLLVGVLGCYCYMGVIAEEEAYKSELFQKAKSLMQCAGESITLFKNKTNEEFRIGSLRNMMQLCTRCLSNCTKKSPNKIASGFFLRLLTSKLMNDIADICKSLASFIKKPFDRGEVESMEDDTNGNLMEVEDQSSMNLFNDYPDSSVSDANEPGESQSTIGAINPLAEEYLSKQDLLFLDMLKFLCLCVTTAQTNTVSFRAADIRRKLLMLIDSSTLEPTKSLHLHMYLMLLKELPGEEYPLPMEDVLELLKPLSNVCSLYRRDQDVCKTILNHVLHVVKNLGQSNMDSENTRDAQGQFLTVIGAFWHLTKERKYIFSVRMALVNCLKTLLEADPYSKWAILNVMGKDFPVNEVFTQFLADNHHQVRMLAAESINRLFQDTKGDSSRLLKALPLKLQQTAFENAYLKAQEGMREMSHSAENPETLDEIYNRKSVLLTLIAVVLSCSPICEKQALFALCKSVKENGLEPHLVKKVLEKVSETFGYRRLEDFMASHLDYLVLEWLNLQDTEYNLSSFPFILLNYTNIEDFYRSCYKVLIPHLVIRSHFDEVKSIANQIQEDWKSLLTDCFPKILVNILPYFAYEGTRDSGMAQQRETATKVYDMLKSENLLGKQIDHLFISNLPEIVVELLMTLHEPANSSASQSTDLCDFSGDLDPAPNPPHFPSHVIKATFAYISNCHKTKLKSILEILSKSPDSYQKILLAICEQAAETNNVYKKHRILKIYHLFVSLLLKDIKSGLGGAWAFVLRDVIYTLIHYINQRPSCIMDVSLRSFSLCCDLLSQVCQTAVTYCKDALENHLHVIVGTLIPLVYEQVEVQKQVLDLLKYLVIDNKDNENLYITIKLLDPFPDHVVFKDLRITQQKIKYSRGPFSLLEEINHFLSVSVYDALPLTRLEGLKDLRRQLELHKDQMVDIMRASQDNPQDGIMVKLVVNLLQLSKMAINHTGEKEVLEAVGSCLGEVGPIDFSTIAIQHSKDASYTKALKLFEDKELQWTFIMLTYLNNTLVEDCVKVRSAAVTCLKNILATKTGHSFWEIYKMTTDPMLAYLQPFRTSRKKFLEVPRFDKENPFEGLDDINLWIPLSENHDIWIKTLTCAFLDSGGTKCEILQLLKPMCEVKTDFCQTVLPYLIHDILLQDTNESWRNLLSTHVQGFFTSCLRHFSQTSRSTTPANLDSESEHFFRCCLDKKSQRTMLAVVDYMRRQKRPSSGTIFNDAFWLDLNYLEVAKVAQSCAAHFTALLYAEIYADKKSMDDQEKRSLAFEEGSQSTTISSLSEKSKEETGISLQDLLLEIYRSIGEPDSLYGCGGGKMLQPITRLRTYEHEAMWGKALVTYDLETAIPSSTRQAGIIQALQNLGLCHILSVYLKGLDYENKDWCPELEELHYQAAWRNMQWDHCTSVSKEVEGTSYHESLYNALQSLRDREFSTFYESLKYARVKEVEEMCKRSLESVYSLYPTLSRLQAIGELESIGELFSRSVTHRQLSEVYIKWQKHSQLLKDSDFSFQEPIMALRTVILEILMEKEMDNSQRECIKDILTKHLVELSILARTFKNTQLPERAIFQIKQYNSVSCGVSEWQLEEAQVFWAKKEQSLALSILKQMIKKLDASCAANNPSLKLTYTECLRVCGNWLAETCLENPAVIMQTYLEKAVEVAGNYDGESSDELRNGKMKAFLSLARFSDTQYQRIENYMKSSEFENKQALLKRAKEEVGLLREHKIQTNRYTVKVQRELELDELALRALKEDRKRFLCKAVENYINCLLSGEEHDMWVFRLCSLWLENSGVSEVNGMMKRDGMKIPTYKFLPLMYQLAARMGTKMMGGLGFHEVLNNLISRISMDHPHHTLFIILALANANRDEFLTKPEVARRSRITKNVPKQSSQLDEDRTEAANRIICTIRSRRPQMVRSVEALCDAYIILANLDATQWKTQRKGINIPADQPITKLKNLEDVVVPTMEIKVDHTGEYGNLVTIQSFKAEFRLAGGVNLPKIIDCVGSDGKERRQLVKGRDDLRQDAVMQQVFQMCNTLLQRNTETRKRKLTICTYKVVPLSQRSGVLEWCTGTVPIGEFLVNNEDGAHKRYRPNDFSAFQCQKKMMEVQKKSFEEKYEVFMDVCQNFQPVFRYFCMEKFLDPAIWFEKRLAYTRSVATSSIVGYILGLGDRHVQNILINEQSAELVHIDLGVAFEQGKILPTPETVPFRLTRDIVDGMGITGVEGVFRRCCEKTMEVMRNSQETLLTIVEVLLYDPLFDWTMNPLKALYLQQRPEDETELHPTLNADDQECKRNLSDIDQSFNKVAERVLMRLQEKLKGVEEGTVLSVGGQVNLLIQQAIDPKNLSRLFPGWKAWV

melting point | IC50 (ATM protein [2]) | Δ(DNA-PK/PI 3-K) (PI 3-kinase (p110α/p85α) [3]) | IC50 (PI 3-kinase (p110α/p85α) [4]) | SMILES | Enhancement Ratio (ER) (HeLa cells) | Δ(DNA-PK/ATM) (ATM protein [1])
220 to 222 °C | 45 µM | 36 | 18 µM | O=c1cc(N2CCOCC2)oc2c3c(ccc12)CCCC3 [Compound 297, 7,8,9,10-tetrahydro-benzo[h]-2-(morpholin-4-yl)-chromen-4-one] | 2.12 | 90
181 to 183 °C | > 100 µM | 8 | 2.5 µM | CC1CN(c2cc(=O)c3ccc4ccccc4c3o2)CCO1 (stereo not drawn) [Compound 317, 2-(2-Methyl-morpholin-4-yl)-benzo[h]chromen-4-one] | 3.62 | >333
210 to 211 °C | > 100 µM | 12 | 6 µM | O=C1c2ccccc2C(=O)N1CCCOc1ccc2c(=O)cc(N3CCOCC3)oc2c1 [Compound 422, N-[3-(2-(Morpholin-4-yl)-4-oxo-4H-chromen-7-yloxy)-propyl]-phthalimide] | 1.68 | >200
